By IC50 is commonly meant the concentration that inhibits the measured activity by half.

Bounds are passed on as bounds.

The text below walks through data of US7582645B2, “Pyrimidine derivatives for treatment of hyperproliferative disorders” (Bayer Pharmaceuticals Corporation, priority 2003, dated 2009).

The subject of the first assay is HCT116 cells. As to the kind of experiment: HCT116 cytotoxic activity assay (Alamar Blue, 72 h). It counts as cell-based. Particulars: Homo sapiens, HCT-116, 72 h compound exposure, greater than 500 nM but less than or equal to 2 μM. As for the experimental part:
Representative compounds of this invention were tested for cytotoxicity using the above-described assay procedure with the following results: […]
Regarding `Nc1nc(Nc2ccc(Cc3ccc(F)cc3)cc2)cc(-c2ccccc2)n1` [Example 91, N^4-[4-(4-fluorobenzyl)phenyl]-6-phenylpyrimidine-2,4-diamine], the IC50 lay within 500 to 2000 nM.

Take `Nc1nc(Nc2ccc(Oc3ccnc(CNC(=O)N4CCOCC4)c3)cc2)cc(-c2ccccc2)n1` [Example 100, N-[(4-{4-[(2-amino-6-phenylpyrimidin-4-yl)amino]phenoxy}pyridin-2-yl)methyl]morpholine-4-carboxamide]: the IC50 lay within 500 to 2000 nM.

On to `Nc1nc(Nc2ccc(Oc3cc(N4CCOCC4)ccn3)cc2)cc(-c2ccccc2)n1` [Example 105, N4*-{4-[(4-morpholin-4-ylpyridin-2-yl)oxy]phenyl}-6-phenylpyrimidine-2,4-diamine], for which the IC50 lay in the range of 500 to 2000 nM.

As for `CN1CCN(c2ccnc(Oc3ccc(Nc4cc(-c5ccccc5)nc(N)n4)cc3)c2)CC1` [Example 107, N4*-(4-{[4-(4-methylpiperazin-1-yl)pyridin-2-yl]oxy}phenyl)-6-phenylpyrimidine-2,4-diamine], the IC50 was in the range of 500 to 2000 nM.

`COCCN(CCOC)c1ccnc(Oc2ccc(Nc3cc(-c4ccccc4)nc(N)n3)cc2)c1` [Example 109, N4*-[4-({4-[bis(2-methoxyethyl)amino]pyridin-2-yl}oxy)phenyl]-6-phenylpyrimidine-2,4-diamine] showed an IC50 of 500 to 2000 nM.

As for `Nc1nc(Nc2ccc(Oc3ccnc(C(F)(F)F)c3)cc2)cc(-c2ccc(Cl)c(Cl)c2)n1` [Example 112, 6-(3,4-dichlorophenyl)-N4*-(4-{[2-(trifluoromethyl)pyridin-4-yl]oxy}phenyl)pyrimidine-2,4-diamine], the IC50 lay in the range of 500 to 2000 nM.

Compound `Nc1nc(Nc2ccc(Oc3ccnc(Cl)c3)cc2)cc(-c2cccc([N+](=O)[O-])c2)n1` [Example 115, N4*-{4-[(2-chloropyridin-4-yl)oxy]phenyl}-6-(3-nitrophenyl)pyrimidine-2,4-diamine] returned an IC50 of 500 to 2000 nM.

`Nc1nc(Nc2cccc(Oc3ccnc(N4CCC[C@H]4CO)c3)c2)cc(-c2ccccc2)n1` [Example 128, [(2S)-1-(4-{3-[(2-amino-6-phenylpyrimidin-4-yl)amino]phenoxy}pyridin-2-yl)pyrrolidin-2-yl]methanol] returned an IC50 of 500 to 2000 nM.

Still in this assay, the particulars now being: Homo sapiens, HCT-116, 72 h compound exposure, greater than 2 μM.
With `Nc1nc(Nc2ccc(Oc3cc(N4CCCCC4)ccn3)cc2)cc(-c2ccccc2)n1` [Example 106, 6-phenyl-N4*-{4-[(4-piperidin-1-ylpyridin-2-yl)oxy]phenyl}pyrimidine-2,4-diamine], the IC50 is more than 2000 nM.

`Nc1nc(Nc2ccc(Oc3cc(N(CCO)CCO)ccn3)cc2)cc(-c2ccccc2)n1` [Example 108, 2,2′-[(2-{4-[(2-amino-6-phenylpyrimidin-4-yl)amino]phenoxy}pyridin-4-yl)imino]diethanol]: the IC50 is more than 2000 nM.

Turning to `CCC(CC)NCc1cc(Oc2ccc(Nc3cc(-c4ccccc4)nc(N)n3)cc2)ccn1` [Example 110, N4*-{4-[(2-{[(1-ethylpropyl)amino]methyl}pyridin-4-yl)oxy]phenyl}-6-phenylpyrimidine-2,4-diamine], the IC50 was more than 2000 nM.

Compound `Nc1nc(Nc2ccc(Oc3ccnc(CNC4CCCCC4)c3)cc2)cc(-c2ccccc2)n1` [Example 111, N4*-[4-({2-[(cyclohexylamino)methyl]pyridin-4-yl}oxy)phenyl]-6-phenylpyrimidine-2,4-diamine] came in with an IC50 of more than 2000 nM.

`COC[C@@H]1CCCN1c1cc(Oc2cccc(Nc3cc(-c4ccccc4)nc(N)n3)c2)ccn1` [Example 122, N4*-[3-({2-[2-(methoxymethyl)pyrrolidin-1-yl]pyridin-4-yl}oxy)phenyl]-6-phenylpyrimidine-2,4-diamine] yielded an IC50 of more than 2000 nM.

`COCCN(CCOC)c1cc(Oc2cccc(Nc3cc(-c4ccccc4)nc(N)n3)c2)ccn1` [Example 126, N4*-[3-({2-[bis(2-methoxyethyl)amino]pyridin-4-yl}oxy)phenyl]-6-phenylpyrimidine-2,4-diamine] registered an IC50 of more than 2000 nM.

Staying with this assay, now noted: Homo sapiens, HCT-116, 72 h compound exposure, less than or equal to 500 nM.
In turn, `CN(C)C(=O)NCc1cc(Oc2ccc(Nc3cc(-c4ccccc4)nc(N)n3)cc2)ccn1` [Example 99, N′-[(4-{4-[(2-amino-6-phenylpyrimidin-4-yl)amino]phenoxy}pyridin-2-yl)methyl]-N,N-dimethylurea] showed an IC50 not above 500 nM.

Turning to `Nc1nc(Nc2cccc(Oc3ccnc(Cl)c3)c2)cc(-c2ccccc2)n1` [Example 113, N4*-{3-[(2-chloropyridin-4-yl)oxy]phenyl}-6-phenylpyrimidine-2,4-diamine], the IC50 was not above 500 nM.

`Nc1nc(Nc2ccc(Oc3ccnc(Cl)c3)cc2)cc(-c2ccc(F)cc2)n1` [Example 114, N4*-{4-[(2-chloropyridin-4-yl)oxy]phenyl}-6-(4-fluorophenyl)pyrimidine-2,4-diamine] registered an IC50 not above 500 nM.

In turn, `Nc1ccc(-c2cc(Nc3ccc(Oc4ccnc(Cl)c4)cc3)nc(N)n2)cc1` [Example 116, 6-(4-aminophenyl)-N4*- {4-[(2-chloropyridin-4-yl)oxy]phenyl}pyrimidine-2,4-diamine] showed an IC50 not above 500 nM.

`Nc1nc(Nc2ccc(Oc3ccnc(Cl)c3)c(F)c2)cc(-c2ccccc2)n1` [Example 117, N4*-{4-[(2-chloropyridin-4-yl)oxy]-3-fluorophenyl}-6-phenylpyrimidine-2,4-diamine] came in with an IC50 not above 500 nM.

Consider `Nc1cccc(-c2cc(Nc3ccc(Oc4ccnc(Cl)c4)cc3)nc(N)n2)c1` [Example 118, 6-(3-aminophenyl)-N4*-{4-[(2-chloropyridin-4-yl)oxy]phenyl}pyrimidine-2,4-diamine], for which the IC50 is not above 500 nM.

`Nc1nc(Nc2cccc(Oc3ccnc(N4CCCCC4)c3)c2)cc(-c2ccccc2)n1` [Example 119, 6-phenyl-N4*-{3-[(2-piperidin-1-ylpyridin-4-yl)oxy]phenyl}pyrimidine-2,4-diamine] displayed an IC50 not above 500 nM.

Compound `Nc1nc(Nc2cccc(Oc3ccnc(N4CCOCC4)c3)c2)cc(-c2ccccc2)n1` [Example 120, N4*-{3-[(2-morpholin-4-ylpyridin-4-yl)oxy]phenyl}-6-phenylpyrimidine-2,4-diamine] displayed an IC50 not above 500 nM.

Compound `Nc1nc(Nc2cccc(Oc3ccnc(N4CCCC4)c3)c2)cc(-c2ccccc2)n1` [Example 121, 6-phenyl-N4*-{3-[(2-pyrrolidin-1-ylpyridin-4-yl)oxy]phenyl}pyrimidine-2,4-diamine] yielded an IC50 not above 500 nM.

In turn, `Nc1nc(Nc2cccc(Oc3ccnc(N4CCC[C@@H]4CO)c3)c2)cc(-c2ccccc2)n1` [Example 123, [(2R)-1-(4-{3-[(2-amino-6-phenylpyrimidin-4-yl)amino]phenoxy}pyridin-2-yl)pyrrolidin-2-yl]methanol] gave an IC50 not above 500 nM.

Compound `COCCN(C)c1cc(Oc2cccc(Nc3cc(-c4ccccc4)nc(N)n3)c2)ccn1` [Example 124, N4*-[3-({2-[(2-methoxyethyl)(methyl)amino]pyridin-4-yl}oxy)phenyl]-6-phenylpyrimidine-2,4-diamine] showed an IC50 not above 500 nM.

On to `CC1CCCN1c1cc(Oc2cccc(Nc3cc(-c4ccccc4)nc(N)n3)c2)ccn1` (stereo not drawn) [Example 125, N4*-(3-{[2-(2-methylpyrrolidin-1-yl)pyridin-4-yl]oxy}phenyl)-6-phenylpyrimidine-2,4-diamine], for which the IC50 is not above 500 nM.

Regarding `Nc1nc(Nc2cccc(Oc3ccnc(N(CCO)CCO)c3)c2)cc(-c2ccccc2)n1` [Example 127, 2,2′-[(4-{3-[(2-amino-6-phenylpyrimidin-4-yl)amino]phenoxy}pyridin-2-yl)imino]diethanol], the IC50 is not above 500 nM.
